Assay results reported in patent US20020039778A1, “Isolated and purified DNA molecule and protein for the degradation of triazine compounds” (Regents of the University of Minnesota, priority 1995, published 2002).

How the values were obtained:
[1] = tested on: B. japonicum strain USDA 123 (pMD1); experiment: Atrazine degradation by Bradyrhizobium japonicum carrying pMD1 (plate clearing, HPLC); format: cell-based
Experimental: Atrazine degradation gene expressed in Bradyrhizobium japonicum. […] The pMD1 was transferred from E. coli DH5α (pMD1) to B. japonicum strains USDA 123 by conjugation. This was done by using helper plasmid pRK2073 and the triparental mating procedure of Leong et al., J. Bio. Chem, 257, 8724-8730 (1982). This was done using a modified patch mating technique. Equal quantities of E. coli DH5α (pMD1), […] and spread to the size of a nickel. The patch was incubated for 4 days at 28° C. and the resulting bacterial growth was removed from the pate, serially diluted in 0.85% NaCl plus 0.01% tween 80, and spread onto the surface of minimal AG plates (Ag without yeast extract) containing 60 μg/ml tetracycline. Plates were incubated for 2 weeks at 28° C. […] Atrazine degradation was verified by HPLC analysis. The identity of transconjugants was verified by using strain specific fluorescent antibodies prepared according to Schmidt et al., J. Bacteriol., 95, 1987-1992 (1968).

[2] = target: T1, atrazine chlorohydrolase (AtzA) (Pseudomonas sp., UniProt P72156); experiment: Enzyme kinetics of purified AtzA (HPLC)
T1 sequence (P72156 whole entry): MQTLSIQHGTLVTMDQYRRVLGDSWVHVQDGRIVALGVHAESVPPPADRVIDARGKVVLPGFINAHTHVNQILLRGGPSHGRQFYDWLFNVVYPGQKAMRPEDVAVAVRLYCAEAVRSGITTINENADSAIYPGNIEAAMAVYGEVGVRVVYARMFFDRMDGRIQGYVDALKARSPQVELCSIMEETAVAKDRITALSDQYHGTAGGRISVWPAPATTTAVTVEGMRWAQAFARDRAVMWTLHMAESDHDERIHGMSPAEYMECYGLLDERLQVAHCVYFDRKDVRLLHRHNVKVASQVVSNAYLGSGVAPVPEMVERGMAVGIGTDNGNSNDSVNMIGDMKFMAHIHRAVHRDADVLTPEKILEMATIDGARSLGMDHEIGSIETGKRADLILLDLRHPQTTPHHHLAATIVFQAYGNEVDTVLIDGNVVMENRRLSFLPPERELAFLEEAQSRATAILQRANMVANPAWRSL
Experimental: (§2) Enzyme Kinetics. […] The reactions were stopped by boiling the reaction tubes at specific times, the addition of 500 μl acetonitrile and rapid freezing at −80° C. Thawed samples were centrifuged at 14,000 rpm for 10 minutes, the supernatants were filtered through a 0.2 μM filter, and placed into crimp-seal HPLC vials. HPLC analysis was done as described above.

[3] = target: T2, N-ethylammeline chlorohydrolase (TrzA) (Gordonia rubripertincta, UniProt Q52725); conditions: cited from earlier work
T2 sequence (Q52725 1-477): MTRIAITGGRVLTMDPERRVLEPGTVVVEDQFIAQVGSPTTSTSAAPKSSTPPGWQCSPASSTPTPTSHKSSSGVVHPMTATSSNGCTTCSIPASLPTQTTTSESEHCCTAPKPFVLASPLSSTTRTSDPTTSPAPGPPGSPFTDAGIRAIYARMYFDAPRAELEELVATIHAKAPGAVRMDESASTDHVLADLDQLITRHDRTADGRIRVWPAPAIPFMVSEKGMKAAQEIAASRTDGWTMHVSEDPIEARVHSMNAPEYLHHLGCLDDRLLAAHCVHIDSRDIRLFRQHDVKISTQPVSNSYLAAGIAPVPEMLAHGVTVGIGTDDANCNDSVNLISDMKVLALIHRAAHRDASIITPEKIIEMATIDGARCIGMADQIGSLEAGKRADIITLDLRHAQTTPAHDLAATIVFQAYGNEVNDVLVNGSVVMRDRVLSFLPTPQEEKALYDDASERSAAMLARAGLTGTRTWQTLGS

[4] = target: T1, atrazine chlorohydrolase (AtzA); experiment: Substrate range of purified AtzA in vitro; format: biochemical, Pseudomonas sp. strain ADP; design: made in house; host or cells: E. coli transformed with pMD4 (1.9-kb AvaI genomic fragment in pACYC184); conditions: purified enzyme in vitro
Experimental: High performance liquid chromatography (HPLC) analysis was performed using a Hewlett-Packard HP 1090 Liquid Chromatograph system equipped with a photodiode array detector and interfaced to an HP 79994A Chemstation. […] Linear gradients of 0-6 minutes, 10-25% acetonitrile (ACN); 6-21 minutes, 25-65% ACN; 21-23 minutes, 65-100% ACN; and 23-25 minutes 100% ACN, were used. Spectral data of the column eluent was acquired between 200-400 nm (12 nm bandwidth per channel) at a sampling frequency of 640 milliseconds. Spectra were referenced against a signal at 550 nm.
The solution was loaded onto a Mono Q HR 16/10 Column (Pharmacia LKB Biotechnology, Uppsala, Sweden). The column was washed with 25 mM MOPS buffer (pH 6.9), and the protein was eluted with a 0-0.5 M KCl gradient. Protein eluting from the column was monitored at 280 nm by using a Pharmacia U.V. protein detector. Pooled fractions containing the major peak were dialyzed overnight against 1 liter 25 mM MOPS buffer (pH 6.9). The dialyzed material was assayed for atrazine degradation ability by using HPLC analysis (see above) and analyzed for purity by sodium dodecyl sulfate (SDS) polyacrylamide gel electrophoreses (Laemlli).
The AtzA protein was examined for its ability to degrade various triazine compounds in vitro.

[5] = tested on: E. coli DH5α (pMD1 or pMD2); experiment: Effect of simple nitrogen sources on atrazine degradation (plate clearing); format: cell-based, Escherichia coli
Experimental: (§1) Analytical methods: plate assays, high performance liquid chromatography (HPLC), thin layer chromatography (TLC), and liquid-liquid partitioning analyses. Atrazine or hydroxyatrazine were incorporated in solid LB or minimal medium, as described in Mandelbaum et al., Appl. Environ. Microbiol., 61, 1451-1457 (1995), at a final concentration of 500 μg/ml to produce an opaque suspension of small particles in the clear agar. The degradation of atrazine or hydroxyatrazine by wild-type and recombinant bacteria was indicated by a zone of clearing surrounding colonies.

[6] = tested on: Pseudomonas species strain ADP; experiment: as above; format: cell-based; conditions: solid media with 500 ppm atrazine, 2 weeks of incubation at 28° C. or 37° C.
Experimental: as §1

CCNc1nc(Cl)nc(NC(C)C)n1 = experiment: purified protein, by the assay type; conditions: other: purified AtzA 50 μg/ml, 25 mM MOPS pH 6.9, room temperature
Experimental: as §2

[7] = protein concentration of 50 mg/liter

## CCNc1nc(Cl)nc(NC(C)C)n1 [Atrazine, 2-chloro-4-ethylamino-6-isopropylamino-1,3,5-s-triazine]
[1]; AG media plates containing up to 500 ppm atrazine
  time to clear atrazine on plates: 10 days
[1]; supplied atrazine 33 ppm
  atrazine in overnight culture broth by HPLC: no atrazine detectable
[2]; [7]
  time to degrade about 100 μM of atrazine to about 1 μM: about 1.35 hours
  time to degrade about 30 ppm of atrazine to about 3 ppb: about 2.6 hours
[2]; read-out: Km of AtzA for atrazine, purified AtzA 50 μg/ml, 25 mM MOPS pH 6.9, room temperature
  Km: 125 µM
[3]
  Degradation of substrate by TrzA: does not degrade

## CCNc1nc(N)nc(Cl)n1 [Desisopropylatrazine, 2-chloro-4-ethylamino-6-amino-s-triazine]
[4]; listed as deisopropylatrazine
  Degradation of substrate by AtzA: ability to dechlorinate
[3]
  Degradation of substrate by TrzA: ability to dechlorinate
[3]; reported for the related triazine hydrolase TrzA
  Km: 82 µM

## Nc1nc(N)nc(N)n1 [Melamine, 2,4,6-triamino-s-triazine]
[4]
  Degradation of substrate by AtzA: not substrates
[4]; listed as melamine
  Degradation of substrate by AtzA: does not degrade

## CCNc1nc(Cl)nc(NCC)n1 [Simazine, 2-chloro-4,6-diethylamino-s-triazine]
[3]
  Degradation of substrate by TrzA: does not degrade

## CCNc1nc(Cl)nc(NC(C)(C)C)n1 [Tertbutylazine, 2-chloro-4-ethylamino-6-terbutylamino-s-triazine]
[4]
  Degradation of substrate by AtzA: not substrates

## Cl.N [ammonium chloride]
[5]; E. coli DH5α (pMD1 or pMD2) vs Pseudomonas strain ADP
  tolerance for ammonium chloride with concomitant atrazine degradation, relative to wild-type: 40-80 fold
[5]; solid media with 500 ppm atrazine
  ammonium chloride concentration in whose presence atrazine degradation (clearing) was observed: ≤ 48 mM
[6]
  ammonium chloride concentration sufficient to inhibit visible clearing of atrazine: 0.6 to 1.2 mM

## atrazine chlorohydrolase (AtzA) (Pseudomonas sp. ADP)
CCNc1nc(Cl)nc(NC(C)C)n1
  Km: 125 µM
